Patent US20090018106A1, “INTRAVENOUS FORMULATIONS OF PYRIDOXAL 5'- PHOSPHATE AND METHOD OF PREPARATION” (Medicure International Inc., priority 2005, published 2009)
Where two headings read alike, the source gives them in different places. One block for each compound: values may come before it.

Experiment: Single intravenous dose escalation of P5P, plasma pharmacokinetics (Examples Two and Three)
Format: in vivo, human
Settings: for Cmax / MRT / Tmax / Vd / clearance / AUC / half-life / AUC(0-t) / AUC(0-inf): both sexes, human; for Cmax / MRT / Tmax / Vd / clearance / AUC / half-life: iv
Procedure: A phase one clinical trial was conducted to compare the pharmacokinetics of intravenously administered P5P and orally administered P5P. The trial was a single dose escalation study.
For intravenous administration, P5P was administered by bolus injection under fasting conditions. The following doses of P5P were studied: 1, 5, 10, and 20 mg/kg. 6 subjects were assigned to each dosage group.
P5P, pyridoxal, and 4-pyridoxic acid were evaluated in both plasma and urine over a 24 hour interval following either intravenous or oral dosing. The results are set out below in Tables 2 and 3.
Methodology—This was a single-blind, single-dose escalation, non-randomized, 4-phase, non-crossover study designed to evaluate the safety and […] subjects under fasting conditions and to estimate pharmacokinetic parameters of P5P.
Subjects were assigned to one of the four groups (six subjects per group) under fasting conditions.
Concentrations of pyridoxal-5′-phosphate (P5P) were measured from the plasma samples collected over a 24-bour interval after dosing in each phase.
Pharmacokinetic parameters: AUCt, AUCinf, Cmax, Tmax, Kel, Thalf, Vd, CL, MRT and F were estimated based on pyridoxal-5′-phosphate (P5P) plasma levels for each subject that was in the final data set.
The test product used was a P5P Intravenous Injectable Solution, 50 mg/ml, which was prepared in accordance with the methods of Example 1 (CanAm BioResearch Inc. Canada); Lot No.: LP1459: Manufacturing Date: 12/03. A single 1, 5, 10 or 20 mg/kg dose was given by intravenous injection. The duration of treatment was a single dose.
Secondary Endpoint—Pharmacokinetic (PK) Parameters—Plasma concentrations of pyridoxal-5′-phosphate (P5P) were measured by a validated analytical method. Based on these concentration levels, AUCt, AUCinf, Cmax, Tmax, Kel, Thalf, Vd, CL, MRT and F were estimated.
Statistical Methods—Descriptive statistics were calculated by treatments for the estimated pharmacokinetic parameters.

[1] = plasma, 1 mg/kg, Group 1, P5P 1 mg/kg single iv, plasma P5P, mean
[2] = plasma, 1 mg/kg, P5P 1 mg/kg single iv bolus, fasting
[3] = plasma, 5 mg/kg, Group 2, P5P 5 mg/kg single iv, plasma P5P, mean
[4] = plasma, 5 mg/kg, P5P 5 mg/kg single iv bolus, fasting
[5] = plasma, 10 mg/kg, Group 3, P5P 10 mg/kg single iv, plasma P5P, mean
[6] = plasma, 10 mg/kg, Group 4, dose 10 mg/kg, single iv, plasma P5P, mean
[7] = plasma, 10 mg/kg, P5P 10 mg/kg single iv bolus, fasting
[8] = plasma, 20 mg/kg, P5P 20 mg/kg single iv bolus, fasting
[9] = plasma, plasma, over all single iv doses of P5P (1-20 mg/kg), read-out: apparent elimination half-life (converted)
[10] = ln(pK Parameter) = b0 + b1 * ln (Dose)
[11] = ln(pK Parameter) = b0 + b1 * ln (Dose), single iv 1-20 mg/kg
[12] = Group 1, P5P 1 mg/kg single iv, plasma PA, mean
[13] = Group 2, P5P 5 mg/kg single iv, plasma PA, mean
[14] = Group 3, P5P 10 mg/kg single iv, plasma PA, mean
[15] = Group 4, P5P 20 mg/kg single iv, plasma PA, mean
[16] = plasma, 1 mg/kg, Group 1, P5P 1 mg/kg single iv, plasma PA, mean
[17] = plasma, 5 mg/kg, Group 2, P5P 5 mg/kg single iv, plasma PA, mean
[18] = plasma, 10 mg/kg, Group 3, P5P 10 mg/kg single iv, plasma PA, mean
[19] = plasma, 20 mg/kg, Group 4, P5P 20 mg/kg single iv, plasma PA, mean

Kel (Group 1, P5P 1 mg/kg single iv, plasma P5P, mean): 0.14 h⁻¹
Kel (Group 2, P5P 5 mg/kg single iv, plasma P5P, mean): 0.118 h⁻¹
Kel (Group 3, P5P 10 mg/kg single iv, plasma P5P, mean): 0.12 h⁻¹
Kel (Group 4, dose 10 mg/kg, single iv, plasma P5P, mean): 0.14 h⁻¹
Cmax [1]: 20 µg/mL
MRT [1]: 3.73 h
Tmax [1]: 0.14 h
Vd [1]: 13 L
clearance [1]: 29.3 mL/min
AUC (plasma, 1 mg/kg, Group 1, P5P 1 mg/kg single iv, plasma P5P, mean, read-out: AUC (O-t)): 38400 ng·h/mL
AUC (plasma, 1 mg/kg, Group 1, P5P 1 mg/kg single iv, plasma P5P, mean, read-out: AUC (o-inf)): 39100 ng·h/mL
half-life (plasma, 1 mg/kg, Group 1, P5P 1 mg/kg single iv, plasma P5P, mean, read-out: T½ (converted)): 5.11 h
Cmax [2]: 20 ± 2.95 µg/mL
Tmax [2]: 0.14 ± 0.07 h
half-life (plasma, 1 mg/kg, P5P 1 mg/kg single iv bolus, fasting, plasma, read-out: T½ (converted)): 5.11 ± 0.98 h
Cmax [3]: 98.8 µg/mL
MRT [3]: 3.52 h
Tmax [3]: 0.14 h
Vd [3]: 16.3 L
clearance [3]: 32.1 mL/min
AUC (plasma, 5 mg/kg, Group 2, P5P 5 mg/kg single iv, plasma P5P, mean, read-out: AUC (O-t)): 173000 ng·h/mL
AUC (plasma, 5 mg/kg, Group 2, P5P 5 mg/kg single iv, plasma P5P, mean, read-out: AUC (o-inf)): 176000 ng·h/mL
half-life (plasma, 5 mg/kg, Group 2, P5P 5 mg/kg single iv, plasma P5P, mean, read-out: T½ (converted)): 5.89 h
Cmax [4]: 98.8 ± 16 µg/mL
Tmax [4]: 0.14 ± 0.07 h
half-life (plasma, 5 mg/kg, P5P 5 mg/kg single iv bolus, fasting, plasma, read-out: T½ (converted)): 5.89 ± 0.39 h
Cmax [5]: 220 µg/mL
MRT [5]: 3.11 h
Tmax [5]: 0.1 h
Vd [5]: 18 L
clearance [5]: 35.2 mL/min
AUC (plasma, 10 mg/kg, Group 3, P5P 10 mg/kg single iv, plasma P5P, mean, read-out: AUC (o-inf)): 312000 ng·h/mL
half-life (plasma, 10 mg/kg, Group 3, P5P 10 mg/kg single iv, plasma P5P, mean, read-out: T½ (converted)): 5.81 h
Cmax [6]: 424 µg/mL
MRT [6]: 3.32 h
Tmax [6]: 0.15 h
Vd [6]: 17.5 L
clearance [6]: 39.8 mL/min
AUC (plasma, 10 mg/kg, Group 4, dose 10 mg/kg, single iv, plasma P5P, mean, read-out: AUC (O-t)): 577000 ng·h/mL
AUC (plasma, 10 mg/kg, Group 4, dose 10 mg/kg, single iv, plasma P5P, mean, read-out: AUC (o-inf)): 585000 ng·h/mL
half-life (plasma, 10 mg/kg, Group 4, dose 10 mg/kg, single iv, plasma P5P, mean, read-out: T½ (converted)): 5.03 h
Cmax [7]: 220 ± 9.52 µg/mL
Tmax [7]: 0.1 ± 0.03 h
half-life (plasma, 10 mg/kg, P5P 10 mg/kg single iv bolus, fasting, plasma, read-out: T½ (converted)): 5.87 ± 0.89 h
Cmax [8]: 424 ± 96.9 µg/mL
Tmax [8]: 0.15 ± 0.07 h
half-life (plasma, 20 mg/kg, P5P 20 mg/kg single iv bolus, fasting, plasma, read-out: T½ (converted)): 5.03 ± 0.72 h
half-life [9]: 5 to 6 h
AUC(0-t) (P5P 1 mg/kg single iv bolus, fasting, plasma, read-out: AUC-T): 38400 ± 4610 ng·h/mL
AUC(0-t) (P5P 5 mg/kg single iv bolus, fasting, plasma, read-out: AUC-T): 173000 ± 32000 ng·h/mL
AUC(0-t) (P5P 10 mg/kg single iv bolus, fasting, plasma, read-out: AUC-T): 308000 ± 45500 ng·h/mL
AUC(0-t) (P5P 20 mg/kg single iv bolus, fasting, plasma, read-out: AUC-T): 577000 ± 62400 ng·h/mL
Significance of b1, lnAUCi [10]: <0.0001
Significance of b1, lnCl [10]: 0.0128
Significance of b1, lnCmax [10]: <0.0001
Significance of b1, lnMRT [10]: 0.1568
Significance of b1, lnThalf [10]: 0.6177
Coef. for Dose (b1), lnAUCi [11]: 0.90
Coef. for Dose (b1), lnCl [11]: 0.10
Coef. for Dose (b1), lnCmax [11]: 1.03
Coef. for Dose (b1), lnMRT [11]: −0.05
Coef. for Dose (b1), lnThalf [11]: 0.02
Intercept (b0), lnAUCi [11]: 3.67
Intercept (b0), lnCl [11]: 7.44
Intercept (b0), lnCmax [11]: 2.98
Intercept (b0), lnMRT [11]: 1.29
Intercept (b0), lnThalf [11]: 1.67
SMILES: Cc1ncc(COP(=O)(O)O)c(C=O)c1O [P5P, Pyridoxal 5′-phosphate, reference compound]
bioavailability, intravenous versus oral (single iv bolus vs single oral tablets): greater when intravenously administered rather than orally administered

Kel [12]: 0.311 h⁻¹
Kel [13]: 0.332 h⁻¹
Kel [14]: 0.268 h⁻¹
Kel [15]: 0.216 h⁻¹
Cmax [16]: 0.419 µg/mL
MRT [16]: 4.5 h
Tmax [16]: 1.04 h
half-life (plasma, 1 mg/kg, Group 1, P5P 1 mg/kg single iv, plasma PA, mean, read-out: T½ (converted)): 2.82 h
Cmax [17]: 2.45 µg/mL
MRT [17]: 3.48 h
Tmax [17]: 0.71 h
half-life (plasma, 5 mg/kg, Group 2, P5P 5 mg/kg single iv, plasma PA, mean, read-out: T½ (converted)): 2.12 h
Cmax [18]: 5.36 µg/mL
MRT [18]: 3.85 h
Tmax [18]: 0.74 h
half-life (plasma, 10 mg/kg, Group 3, P5P 10 mg/kg single iv, plasma PA, mean, read-out: T½ (converted)): 2.73 h
Cmax [19]: 16.1 µg/mL
MRT [19]: 4.13 h
Tmax [19]: 0.73 h
half-life (plasma, 20 mg/kg, Group 4, P5P 20 mg/kg single iv, plasma PA, mean, read-out: T½ (converted)): 3.48 h
half-life [9]: 2 to 3.5 h
AUC(0-inf) [12]: 1990 ng·h/mL
AUC(0-t) (Group 1, P5P 1 mg/kg single iv, plasma PA, mean, read-out: AUC(0-t)): 1500 ng·h/mL
AUC(0-inf) [13]: 10700 ng·h/mL
AUC(0-t) (Group 2, P5P 5 mg/kg single iv, plasma PA, mean, read-out: AUC(0-t)): 10500 ng·h/mL
AUC(0-inf) [14]: 23000 ng·h/mL
AUC(0-t) (Group 3, P5P 10 mg/kg single iv, plasma PA, mean, read-out: AUC(0-t)): 22700 ng·h/mL
AUC(0-inf) [15]: 53000 ng·h/mL
AUC(0-t) (Group 4, P5P 20 mg/kg single iv, plasma PA, mean, read-out: AUC(0-t)): 51900 ng·h/mL
Significance of b1, lnAUCi [10]: <0.0001
Significance of b1, lnCmax [10]: <0.0001
Significance of b1, lnMRT [10]: 0.7995
Significance of b1, lnThalf [10]: 0.2604
Coef. for Dose (b1), lnAUCi [11]: 1.10
Coef. for Dose (b1), lnCmax [11]: 1.20
Coef. for Dose (b1), lnMRT [11]: −0.01
Coef. for Dose (b1), lnThalf [11]: 0.08
Intercept (b0), lnAUCi [11]: 0.62
Intercept (b0), lnCmax [11]: −0.98
Intercept (b0), lnMRT [11]: 1.37
Intercept (b0), lnThalf [11]: 0.82
SMILES: Cc1ncc(CO)c(C(=O)O)c1O [PA, 4-pyridoxic acid]
dose relationship of plasma AUCinf and Cmax (single iv P5P 1-20 mg/kg): increase more than expected based on dose
